Results reported in patent publication US10323022B2, “Pyrrolidinyl urea, pyrrolidinyl thiourea and pyrrolidinyl guanidine compounds as TrkA kinase inhibitors” (Array BioPharma Inc., priority 2011, dated 2019).
Where a name gives a salt, the structure may show the parent alone.

Target: TrkA (Homo sapiens (Human), UniProt P04629)
Experiment: TrkA Omnia Assay
Type: biochemical
Settings: averaged IC50; 20 nM enzyme, 500 μM ATP, 10 μM peptide substrate
Outline: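 Recombinant TrkA (20 nM) preincubated 10 min at ambient temperature with compound, then Omnia Tyr Peptide #4 (10 μM) and ATP (500 μM) added in 25 mM MOPS pH 7.5, 5 mM MgCl2, 0.005% Triton X-100. Fluorescence (ex 360/em 485 nm) followed continuously for 70 min; IC50 from initial rates by 4- or 5-parameter logistic fit.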

TrkA, sequence (P04629 33-796): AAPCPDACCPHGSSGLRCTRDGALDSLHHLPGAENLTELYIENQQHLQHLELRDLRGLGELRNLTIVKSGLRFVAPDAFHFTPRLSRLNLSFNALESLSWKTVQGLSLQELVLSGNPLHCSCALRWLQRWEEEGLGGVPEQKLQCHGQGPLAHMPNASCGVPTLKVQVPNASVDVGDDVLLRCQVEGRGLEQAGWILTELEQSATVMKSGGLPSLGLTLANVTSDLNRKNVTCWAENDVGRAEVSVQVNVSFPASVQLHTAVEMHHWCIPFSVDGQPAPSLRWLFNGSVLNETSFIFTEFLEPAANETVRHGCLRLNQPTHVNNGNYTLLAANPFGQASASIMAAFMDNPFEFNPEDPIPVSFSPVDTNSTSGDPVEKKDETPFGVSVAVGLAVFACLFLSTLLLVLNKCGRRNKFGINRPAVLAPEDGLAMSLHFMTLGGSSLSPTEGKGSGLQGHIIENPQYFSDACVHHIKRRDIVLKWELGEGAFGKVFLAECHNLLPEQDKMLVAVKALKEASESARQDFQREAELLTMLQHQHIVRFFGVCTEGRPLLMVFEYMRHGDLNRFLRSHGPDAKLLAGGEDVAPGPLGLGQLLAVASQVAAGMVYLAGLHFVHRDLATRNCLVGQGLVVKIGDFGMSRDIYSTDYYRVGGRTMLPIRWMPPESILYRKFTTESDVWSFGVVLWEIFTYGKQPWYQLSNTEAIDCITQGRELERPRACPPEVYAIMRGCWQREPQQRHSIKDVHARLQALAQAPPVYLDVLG

Row | SMILES | IC50 [µM]
1 | COCCN1C[C@@H](NC(=O)Nc2c(C)c(OC[C@@H]3COC(C)(C)O3)nn2-c2ccccc2)[C@H](c2cc(F)c(F)c(F)c2)C1 [Example 399, 1-(3-(((R)-2,2-dimethyl-1,3-dioxolan-4-yl)methoxy)-4-methyl-1-phenyl-1H-pyrazol-5-yl)-3-((3S,4R)-1-(2-methoxyethyl)-4-(3,4,5-trifluorophenyl)pyrrolidin-3-yl)urea] | < 0.1
2 | COCCN1C[C@@H](NC(=O)Nc2c3c(nn2C2CCCCC2)CCC3)[C@H](c2ccc(F)c(F)c2)C1 [Example 150, 1-(2-cyclohexyl-2,4,5,6-tetrahydrocyclopenta [c]pyrazol-3-yl)-3-((3S,4R)-4-(3,4-difluorophenyl)-1-(2-methoxyethyl)pyrrolidin-3-yl)urea] | < 0.1
3 | COCCN1C[C@@H](NC(=O)Nc2cc(-c3cccc(C)c3)nn2C)[C@H](c2ccc(F)c(F)c2)C1 [Example 103, 1-((3S,4R)-4-(3,4-difluorophenyl)-1-(2-methoxyethyl)pyrrolidin-3-yl)-3-(1-methyl-3-m-tolyl-1H-pyrazol-5-yl) urea] | < 0.1
4 | COCCN1C[C@@H](NC(=O)Nc2c(Br)c(C3CCN(S(C)(=O)=O)CC3)nn2-c2ccccc2)[C@H](c2ccc(F)c(F)c2)C1 [Example 592, 1-(4-bromo-3-(1-(methylsulfonyl)piperidin-4-yl)-1-phenyl-1H-pyrazol-5-yl)-3-((3S,4R)-4-(3,4-difluorophenyl)-1-(2-methoxyethyl)pyrrolidin-3-yl)urea] | < 0.1
5 | COCCN1C[C@@H](NC(=O)Nc2cc(C(C)(C)C)nn2C)[C@H](c2ccccc2)C1 (relative stereo) [Example 5, 1-(3-tert-butyl-1-methyl-1H-pyrazol-5-yl)-3-(trans-1-(2-methoxyethyl)-4-phenylpyrrolidin-3-yl) urea] | 1 to 10
6 | COCCN1C[C@@H](NC(=O)Nc2cn(-c3ccccc3)nc2C(F)(F)F)[C@H](c2ccc(F)c(F)c2)C1 [Example 649, 1-((3S,4R)-4-(3,4-difluorophenyvl)-1-(2-methoxyethyl)pyrrolidin-3-yl)-3-(1-phenyl-3-(trifluoromethyl)-1H-pyrazol-4-yl)urea] | 0.1 to 1
7 | CCOc1nn(-c2ccccc2)c(NC(=O)N[C@@H]2CN(c3ccnn3C)C[C@H]2c2cc(F)cc(F)c2)c1C [Example 230, 1-((3S,4R)-4-(3,5-difluorophenyl)-1-(1-methyl-1H-pyrazol-5-yl)pyrrolidin-3-yl)-3-(3-ethoxy-4-methyl-1-phenyl-1H-pyrazol-5-yl)urea] | 0.1 to 1
8 | COCCN1C[C@@H](NC(=O)Nc2cc(C(C)C)nn2-c2ccccc2)[C@H](c2cccc(Cl)c2)C1 (relative stereo) [Example 42, trans-1-(4-(3-chlorophenyl)-1-(2-methoxyethyl)pyrrolidin-3-yl)-3-(3-isopropyl-1-phenyl-1H-pyrazol-5-yl)urea] | < 0.1
9 | O=C(Nc1c2c(nn1-c1ccccc1)CCC2)N[C@@H]1CN(CC(F)(F)F)C[C@H]1c1ccc(F)cc1 (relative stereo) [Example 210, 1-((trans)-4-(4-fluorophenyl)-1-(2,2,2-trifluoroethyl)pyrrolidin-3-yl)-3-(2-phenyl-2,4,5,6-tetrahydrocyclopenta[c]pyrazol-3-yl)urea] | < 0.1
10 | COCCN1C[C@@H](NC(=O)Nc2c(Br)c(C3CCOCC3)nn2-c2ccccc2)[C@H](c2ccc(F)c(F)c2)C1 [Example 574, 1-(4-bromo-1-phenyl-3-(tetrahydro-2H-pyran-4-yl)-1H-pyrazol-5-yl)-3-((3S,4R)-4-(3,4-difluorophenyl)-1-(2-methoxyethyl)pyrrolidin-3-yl)urea] | < 0.1
11 | COCC(N1C[C@@H](NC(=O)Nc2c3c(nn2-c2ccccc2)CCC3)[C@H](c2ccc(F)c(F)c2)C1)C(C)(C)O (stereo partly drawn) [Example 261, 1-((3S,4R)-4-(3,4-difluorophenyl)-1-(3-hydroxy-1-methoxy-3-methylbutan-2-yl)pyrrolidin-3-yl)-3-(2-phenyl-2,4,5,6-tetrahydrocyclopenta[c]pyrazol-3-yl)urea] | 0.1 to 1
12 | COCCN1C[C@@H](NC(=O)Nc2c(Cl)c(CCOC(C)=O)nn2-c2ccccc2)[C@H](c2ccc(F)c(F)c2)C1 [Example 448, 2-(4-chloro-5-(3-((3S,4R)-4-(3,4-difluorophenyl)-1-(2-methoxyethyl)pyrrolidin-3-yl)ureido)-1-phenyl-1H-pyrazol-3-yl)ethyl acetate] | < 0.1

The next lines start with the values.

Row | IC50 [µM] | SMILES
13 | < 0.1 | COCCN1C[C@@H](NC(=O)Nc2c(C)c(OCC(F)(F)F)nn2-c2ccccc2)[C@H](c2ccc(F)c(F)c2)C1 [Example 475, 1-((3S,4R)-4-(3,4-difluorophenyl)-1-(2-methoxyethyl)pyrrolidin-3-yl)-3-(4-methyl-1-phenyl-3-(2,2,2-trifluoroethoxy)-1H-pyrazol-5-yl)urea]
14 | < 0.1 | COCCN1C[C@@H](NC(=O)Nc2c(C)c(OS(=O)(=O)C(F)(F)F)nn2-c2ccccc2)[C@H](c2ccc(F)c(F)c2)C1 [Example 525, 5-(3-((3S,4R)-4-(3,4-difluorophenyl)-1-(2-methoxyethyl)pyrrolidin-3-yl)ureido)-4-methyl-1-phenyl-1H-pyrazol-3-yl trifluoromethanesulfonate]
15 | < 0.1 | COCCN1C[C@@H](NC(=O)Nc2c(C)c(-c3ncn(C)n3)nn2-c2ccccc2)[C@H](c2ccc(F)c(F)c2)C1 [Example 347, 1-((3S,4R)-4-(3,4-difluorophenyl)-1-(2-methoxyethyl)pyrrolidin-3-yl)-3-(4-methyl-3-(1-methyl-1H-1,2,4-triazol-3-yl)-1-phenyl-1H-pyrazol-5-yl)urea]
16 | < 0.1 | COCCN1C[C@@H](NC(=O)Nc2c(C)c(-c3cc(C)n(C)n3)nn2-c2ccccc2)[C@H](c2ccc(F)cc2)C1 [Example 307, 1-((3S,4R)-4-(4-fluorophenyl)-1-(2-methoxyethyl)pyrrolidin-3-yl)-3-(1′,4,5′-trimethyl-1-phenyl-1H,1′H-[3,3′-bipyrazol]-5-yl)urea]
17 | < 0.1 | COCCN1C[C@@H](NC(=O)Nc2c(C)c(C(=O)N(C)C)nn2-c2ccccc2)[C@H](c2ccc(F)c(F)c2)C1 [Example 460, 5-(3-((3S,4R)-4-(3,4-difluorophenyl)-1-(2-methoxyethyl)pyrrolidin-3-yl)ureido)-N,N,4-trimethyl-1-phenyl-1H-pyrazole-3-carboxamide]
18 | < 0.1 | COCCN1C[C@@H](NC(=O)Nc2c(F)c(-c3ccccc3)nn2C)[C@H](c2ccc(F)c(F)c2)C1 [Example 168, 1-((3S,4R)-4-(3,4-difluorophenyl)-1-(2-methoxyethyl)pyrrolidin-3-yl)-3-(4-fluoro-1-methyl-3-phenyl-1H-pyrazol-5-yl)urea]
19 | < 0.1 | COCCN1C[C@@H](NC(=O)Nc2c(C)c(C(N)=O)nn2-c2ccccc2)[C@H](c2ccc(F)c(F)c2)C1 [Example 463, 5-(3-((3S,4R)-4-(3,4-difluorophenyl)-1-(2-methoxyethyl)pyrrolidin-3-yl)ureido)-4-methyl-1-phenyl-1H-pyrazole-3-carboxamide]
20 | < 0.1 | COCCN1C[C@@H](NC(=O)Nc2cc(C(C)C)nn2-c2ccccc2)[C@H](c2ccc(F)cc2)C1 (relative stereo) [Example 41, trans-1-(4-(4-fluorophenyl)-1-(2-methoxyethyl)pyrrolidin-3-yl)-3-(3-isopropyl-1-phenyl-1H-pyrazol-5-yl)urea]
21 | < 0.1 | COCCN1C[C@@H](NC(=O)Nc2c(C)c(COC)nn2-c2ccccc2)[C@H](c2ccc(F)c(F)c2)C1 [Example 123, 1-((3S,4R)-4-(3,4-difluorophenyl)-1-(2-methoxyethyl)pyrrolidin-3-yl)-3-(3-(methoxy-methyl)-4-methyl-1-phenyl-1H-pyrazol-5-yl)urea]
22 | < 0.1 | Cc1c(-c2cnn(C)c2)nn(-c2ccccc2)c1NC(=O)N[C@@H]1CN(Cc2csnn2)C[C@H]1c1ccc(F)c(F)c1 [Example 251, 1-((3S,4R)-1-((1,2,3-thiadiazol-4-yl)methyl)-4-(3,4-difluorophenyl)pyrrolidin-3-yl)-3-(1′,4-dimethyl-1-phenyl-1H, 1′H-3,4′-bipyrazol-5-yl)urea]
23 | < 0.1 | COCCN1C[C@@H](NC(=O)Nc2c(C)c(COC)nn2-c2ccccc2)[C@H](c2ccccc2)C1 [Example 101, 1-((3S,4R)-1-(2-methoxy-ethyl)-4-phenylpyrrolidin-3-yl)-3-(3-(methoxy-methyl)-4-methyl-1-phenyl-1H-pyrazol-5-yl) urea]
24 | < 0.1 | COCCN1C[C@@H](NC(=O)Nc2c(C)c([C@@H]3CCCN3C)nn2-c2ccccc2)[C@H](c2cc(F)cc(F)c2)C1 [Example 598, 1-((3S,4R)-4-(3,5-difluorophenyl)-1-(2-methoxyethyl)pyrrolidin-3-yl)-3-(4-methyl-3-((S)-1-methylpyrrolidin-2-yl)-1-phenyl-1H-pyrazol-5-yl)urea dihydrochloride]
25 | < 0.1 | COCCN1C[C@@H](NC(=O)Nc2c(C)c(C(C)C)nn2-c2ccccc2)[C@H](c2ccccc2)C1 [Example 80, 1-(3-isopropyl-4-methyl-1-phenyl-1H-pyrazol-5-yl)-3-((3S,4R)-1-(2-methoxy-ethyl)-4-phenylpyrrolidin-3-yl)urea]
26 | < 0.1 | COCCN1C[C@@H](NC(=O)Nc2c(C)c(-c3ccc(N)nc3)nn2-c2ccccc2)[C@H](c2ccc(F)c(F)c2)C1 [Example 515, 1-(3-(6-aminopyridin-3-yl)-4-methyl-1-phenyl-1H-pyrazol-5-yl)-3-((3S,4R)-4-(3,4-difluorophenyl)-1-(2-methoxyethyl)pyrrolidin-3-yl)urea]
27 | < 0.1 | COCCN1C[C@@H](NC(=O)Nc2c(C)c(-c3sc(C)nc3C)nn2-c2ccccc2)[C@H](c2ccc(F)c(F)c2)C1 [Example 513, 1-((3S,4R)-4-(3,4-difluorophenyl)-1-(2-methoxyethyl)pyrrolidin-3-yl)-3-(3-(2,4-dimethylthiazol-5-yl)-4-methyl-1-phenyl-1H-pyrazol-5-yl)urea]
